pEC50: −log10 of the molar value. *1 amine or outer side, *2 acyl side, *3 side chain or, on linkers, in order; H or OH if unused. Where a SMILES comes first, the peptide text is derived from it. Side-chain parts run from the residue outwards. [ ]: non-standard residue; d: D form. The star is where a group is joined. C18 diacid = O=C(O)CCCCCCCCCCCCCCCCC(=O)*; C16 diacid = O=C(O)CCCCCCCCCCCCCCC(=O)*; γGlu = O=C(O)[C@H](CCC(=O)[*:2])N[*:1]; αMeK = C[C@](N)(CCCCN)C(=O)O; AEEA = NCCOCCOCC(=O)O
Columns and labels:
[1] = biological target: T1, human CRF2a receptor (Homo sapiens, UniProt Q13324); experiment: Activity at human CRF2a receptor, cAMP functional assay in TeloHEAC cells; type: cell-based; details: TeloHEAC cells stably expressing human CRF2a receptor, relative to urocortin 2 (100 nM = 100%)
T1 construct: expressed in transfected cells; host or cells: TeloHEAC cells
T1 sequence (Q13324 1-411): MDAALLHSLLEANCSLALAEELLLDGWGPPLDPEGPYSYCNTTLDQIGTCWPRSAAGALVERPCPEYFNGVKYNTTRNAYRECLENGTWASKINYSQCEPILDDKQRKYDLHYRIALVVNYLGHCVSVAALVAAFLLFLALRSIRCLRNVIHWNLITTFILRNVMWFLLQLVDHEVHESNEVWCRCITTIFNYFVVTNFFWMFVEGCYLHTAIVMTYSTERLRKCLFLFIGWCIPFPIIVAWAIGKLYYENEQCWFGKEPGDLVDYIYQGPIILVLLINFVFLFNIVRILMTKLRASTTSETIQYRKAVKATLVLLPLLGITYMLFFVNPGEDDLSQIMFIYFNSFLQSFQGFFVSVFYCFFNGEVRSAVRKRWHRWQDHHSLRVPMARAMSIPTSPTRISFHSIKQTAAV
Summary of the method: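 TeloHEAC cells stably expressing human CRF2a (10000 cells/well, suspended in HBSS/20 mM HEPES with 2 mM IBMX) were exposed to compounds for 30 min at 37 °C. cAMP was read as the 665/620 nm fluorescence ratio after 1 h at room temperature. EC50 was derived relative to 100 nM urocortin 2, set as 100%.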

[2] = biological target: T2, CFR1R receptor (Homo sapiens, UniProt P34998); experiment: Activity at anti-target CFR1R receptor, cAMP assay in CRF1R-overexpression CHO-K1 cells; type: cell-based; details: 100% = Sauvagine at 100 nM; for pEC50: cAMP
T2 construct: host or cells: CHO-K1 (clone 2)
T2 sequence (P34998 24-415): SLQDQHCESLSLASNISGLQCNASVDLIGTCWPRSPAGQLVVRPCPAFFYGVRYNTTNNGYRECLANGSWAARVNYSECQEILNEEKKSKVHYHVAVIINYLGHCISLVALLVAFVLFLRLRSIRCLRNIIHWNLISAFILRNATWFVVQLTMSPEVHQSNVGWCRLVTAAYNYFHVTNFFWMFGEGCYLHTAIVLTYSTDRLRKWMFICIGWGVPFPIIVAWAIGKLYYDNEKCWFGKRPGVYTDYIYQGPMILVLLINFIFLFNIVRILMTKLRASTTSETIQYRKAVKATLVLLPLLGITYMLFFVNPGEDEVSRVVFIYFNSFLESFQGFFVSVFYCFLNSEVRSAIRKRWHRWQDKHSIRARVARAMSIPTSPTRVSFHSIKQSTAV
Summary of the method: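 The method mirrors that used with TeloHAEC cells. Here, thawed clone 2 cells seeded at 4000 cells/well are tested, and 100 nM Sauvagine sets the top of the activation scale.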

[3] = Chemical stability in buffer (pH 7.4 / pH 4.5), % purity loss; type: physicochemical; details: 40° C. vs 5° C., 14 or 28 days; for Buffer stability pH 4.5 % purity loss: 100 mM acetate buffer pH 4.5; for Buffer stability pH 7.4 % purity loss: 100 mM phosphate buffer pH 7.4
Method: Solubility and chemical stability were studied in 100 mM phosphate buffer (pH 7.4) and 100 mM acetate buffer (pH 4.5). Test compound powders were dissolved in both buffers at a target concentration of 10 mg/mL and incubated for 1 hour at room temperature. After centrifugation at 2500 rcf for 15 minutes, 10 μL of supernatant was diluted with 190 μL of the incubation buffer and analyzed by LC-UV (Acquity UPLC-DAD, Waters). Solubility was calculated by comparing the peak area of the test compound in the buffer sample with the peak area of the same compound dissolved at 0.5 mg/mL in water:acetonitrile 1:1, 0.1% formic acid.
From the centrifuged supernatant, two additional 80 μL aliquots were collected and diluted with 160 μL of incubation buffer. One aliquot was stored at 5° C., while the other was stored at 40° C. After 14 or 28 days, the samples were analyzed by LC-UV. Chemical stability was calculated as % loss using the following equations: […]

Row | Structure (SMILES) | pEC50 [1] | Emax (% I) [2] [% I] | pEC50 [2] | Buffer stability pH 4.5 % purity loss [3] | Buffer stability pH 7.4 % purity loss [3] [%]
1 | CC[C@H](C)[C@H](NC(=O)[C@H](CCC(N)=O)NC(=O)[C@H](CCCCN)NC(=O)[C@H](CC(N)=O)NC(=O)[C@@H](NC(=O)[C@H](CCC(=O)O)NC(=O)[C@H](C)NC(=O)[C@H](CCC(N)=O)NC(=O)[C@H](CCC(=O)O)NC(=O)[C@H](CCCNC(=N)N)NC(=O)[C@H](CCC(N)=O)NC(=O)[C@H](CCCCN)NC(=O)[C@H](CCCCN)NC(=O)[C@H](CCC(N)=O)NC(=O)[C@H](CCCCN)NC(=O)[C@H](CCC(=O)O)NC(=O)[C@H](CCC(N)=O)NC(=O)[C@H](CCC(=O)O)NC(=O)[C@H](CC(C)C)NC(=O)[C@H](CC(C)C)NC(=O)[C@@H](NC(=O)[C@H](CCCCN)NC(=O)[C@H](CCCCNC(=O)CC[C@H](NC(=O)CCCCCCCCCCCCCCC(=O)O)C(=O)O)NC(=O)[C@H](CC(C)C)NC(=O)[C@H](CCCCN)NC(=O)[C@@H](NC(=O)[C@@H]1CCCN1C(=O)[C@H](NC(=O)[C@H](CC(=O)O)NC(=O)[C@H](CC(C)C)NC(=O)[C@H](CO)NC(=O)[C@H](CC(C)C)NC(=O)[C@@H](N)C(C)C)C(C)C)[C@@H](C)CC)[C@@H](C)CC)[C@@H](C)O)C(=O)N[C@@H](CC(C)C)C(=O)N[C@@H](C)C(=O)N[C@@H](CCC(N)=O)C(=O)N[C@H](C(N)=O)C(C)C [compound 34] (H-VLSLD[dV]PIKLK([γGlu-C16 diacid])KILLEQEKQKKQREQAETNKQILAQV-NH2) | 8.79 | 0 | < 6.60 | 0% | 4.5
2 | CC[C@H](C)[C@H](NC(C)=O)C(=O)N[C@H](C(=O)N[C@@H](CC(C)C)C(=O)N[C@@H](CO)C(=O)N[C@@H](CC(C)C)C(=O)N[C@@H](CC(=O)O)C(=O)N[C@@H](C(=O)N1CCC[C@H]1C(=O)N[C@H](C(=O)N[C@@H](CCCCN)C(=O)N[C@@H](CC(C)C)C(=O)N[C@@H](CCCCNC(=O)CC[C@H](NC(=O)CCCCCCCCCCCCCCC(=O)O)C(=O)O)C(=O)N[C@@H](CCCCN)C(=O)N[C@H](C(=O)N[C@@H](CC(C)C)C(=O)N[C@@H](CC(C)C)C(=O)N[C@@H](CCC(=O)O)C(=O)N[C@@H](CCC(N)=O)C(=O)N[C@@H](CCC(=O)O)C(=O)N[C@@H](CCCCN)C(=O)N[C@@H](CCC(N)=O)C(=O)N[C@@H](CCCCN)C(=O)N[C@@H](CCCCN)C(=O)N[C@@H](CCC(N)=O)C(=O)N[C@@H](CCCNC(=N)N)C(=O)N[C@@H](CCC(=O)O)C(=O)N[C@@H](CCC(N)=O)C(=O)N[C@@H](C)C(=O)N[C@@H](CCC(=O)O)C(=O)N[C@H](C(=O)N[C@@H](CC(N)=O)C(=O)N[C@@](C)(CCCCN)C(=O)N[C@@H](CCC(N)=O)C(=O)N[C@H](C(=O)N[C@@H](CC(C)C)C(=O)N[C@@H](C)C(=O)N[C@@H](CCC(N)=O)C(=O)N[C@H](C(N)=O)C(C)C)[C@@H](C)CC)[C@@H](C)O)[C@@H](C)CC)[C@@H](C)CC)C(C)C)C(C)C [compound 54] (Ac-IVLSLD[dV]PIKLK([γGlu-C16 diacid])KILLEQEKQKKQREQAETN[αMeK]QILAQV-NH2) | 9.92 | 20 | < 6.60 | nd/0 ^ % | 
3 | CC[C@H](C)[C@H](NC(=O)[C@H](CCC(N)=O)NC(=O)[C@H](CCCCN)NC(=O)[C@H](CC(N)=O)NC(=O)[C@@H](NC(=O)[C@H](CCC(=O)O)NC(=O)[C@H](C)NC(=O)[C@H](CCC(N)=O)NC(=O)[C@H](CCC(=O)O)NC(=O)[C@H](CCCNC(=N)N)NC(=O)[C@H](CCC(N)=O)NC(=O)[C@H](CCCCN)NC(=O)[C@H](CCCCN)NC(=O)[C@H](CCC(N)=O)NC(=O)[C@H](CCCCN)NC(=O)[C@H](CCC(=O)O)NC(=O)[C@H](CCC(N)=O)NC(=O)[C@H](CCC(=O)O)NC(=O)[C@H](CC(C)C)NC(=O)[C@H](CC(C)C)NC(=O)[C@@H](NC(=O)[C@H](CCCCN)NC(=O)[C@H](CCCCNC(=O)COCCOCCNC(=O)COCCOCCNC(=O)CC[C@H](NC(=O)CCCCCCCCCCCCCCCCC(=O)O)C(=O)O)NC(=O)[C@H](CC(C)C)NC(=O)[C@H](CCCCN)NC(=O)[C@@H](NC(=O)[C@@H]1CCCN1C(=O)[C@H](NC(=O)[C@H](CC(=O)O)NC(=O)[C@H](CC(C)C)NC(=O)[C@H](CO)NC(=O)[C@H](CC(C)C)NC(=O)[C@@H](NC(C)=O)C(C)C)C(C)C)[C@@H](C)CC)[C@@H](C)CC)[C@@H](C)O)C(=O)N[C@@H](CC(C)C)C(=O)N[C@@H](C)C(=O)N[C@@H](CCC(N)=O)C(=O)N[C@H](C(N)=O)C(C)C [compound 92] (Ac-VLSLD[dV]PIKLK([AEEA-AEEA-γGlu-C18 diacid])KILLEQEKQKKQREQAETNKQILAQV-NH2) | 8.64 | 5 | < 6.60 | 0% | 16.8
4 | CC[C@H](C)[C@H](NC(=O)[C@H](CCC(N)=O)NC(=O)[C@H](CCCCN)NC(=O)[C@H](CC(N)=O)NC(=O)[C@@H](NC(=O)[C@H](CCC(=O)O)NC(=O)[C@H](C)NC(=O)[C@H](CCC(N)=O)NC(=O)[C@H](CCC(=O)O)NC(=O)[C@H](CCCNC(=N)N)NC(=O)[C@H](CCC(N)=O)NC(=O)[C@H](CCCCN)NC(=O)[C@H](CCCCN)NC(=O)[C@H](CCC(N)=O)NC(=O)[C@H](CCCCN)NC(=O)[C@H](CCC(=O)O)NC(=O)[C@H](CCC(N)=O)NC(=O)[C@H](CCC(=O)O)NC(=O)[C@H](CC(C)C)NC(=O)[C@H](CC(C)C)NC(=O)[C@@H](NC(=O)[C@H](CCCCN)NC(=O)[C@H](CCCCNC(=O)COCCOCCNC(=O)COCCOCCNC(=O)CC[C@H](NC(=O)CCCCCCCCCCCCCCCCC(=O)O)C(=O)O)NC(=O)[C@H](CC(C)C)NC(=O)[C@H](CCCCN)NC(=O)[C@@H](NC(=O)[C@@H]1CCCN1C(=O)[C@H](NC(=O)[C@H](CC(=O)O)NC(=O)[C@H](CC(C)C)NC(=O)[C@H](CO)NC(=O)[C@H](CC(C)C)NC(=O)[C@@H](N)C(C)C)C(C)C)[C@@H](C)CC)[C@@H](C)CC)[C@@H](C)O)C(=O)N[C@@H](CC(C)C)C(=O)N[C@@H](C)C(=O)N[C@@H](CCC(N)=O)C(=O)N[C@H](C(N)=O)C(C)C [compound 93] (H-VLSLD[dV]PIKLK([AEEA-AEEA-γGlu-C18 diacid])KILLEQEKQKKQREQAETNKQILAQV-NH2) | 8.29 | 6 | < 6.60 | 0% | 19
